System: acyclovir-resistant reference strain DM21
Assay: Antiviral susceptibility testing by ELISA on HEp-2 cells, strain DM21
Assay type: cell-based, HSV 1
Details: HEp-2 cells, ELISA; median of at least three assays; drugs diluted in μM; read-out: Susceptibility of strain DM21 (concentration causing 50% inhibition of viral replication, IC50), median
Experimental: Three HSV 1 reference strains were tested : SC16 (acyclovir-susceptible reference strain; (Hill et al., 1975)), DM21 (acyclovir-resistant reference strain derived from SC16; (Efstathiou et al., 1989)) and TP 2.5 (foscarnet-resistant reference strain derived from SC16; (Larder and Darby, 1985)). Antiviral assays were performed in duplicate on HEp-2 cells seeded in 96 wells microplates. Dilutions of virus and drugs were prepared in E-MEM without FCS. Cells were first treated for 24 hours with MGBG using a series of 6 twofold serial dilutions from 12.5 to 400 μM. Infection was then achieved with 5 tenfold dilutions of cell-associated virus (10^−1 to 10^−5). Each dilution was incubated with a series of 6 concentrations of each antiviral drug (from 12.5 to 400 μM in twofold dilutions for MGBG, from 0.16 to 500 μM in fivefold dilutions for acyclovir and from 31 to 1000 μM in twofold dilutions for foscarnet). […] After incubation at 36° C. with 5% CO2 for 24 hours post-infection, medium was replaced with freshly prepared dilutions of MGBG. Viral multiplication was checked 24 hours afterwards by an ELISA (Morfin et al., 1999), using a rabbit monoclonal anti-HSV 1 antibody (BO 114, Dako) and a protein A peroxidase-conjugated (BioRad). The substrate, 2,2′-azino-di(3-ethyl-benzthiazoline) sulfonic acid (ABTS) diluted in ABTS buffer (Boehringer, Mannheim), was added to each well. After 30 min at room temperature, the plates were briefly agitated and optical densities were read at 405 nm with a multichannel spectrophotomoter (Titertek-Multiskan). Optical density values were used with the Biolise program (Life Sciences International) to calculate the concentration of the drug causing a 50% inhibition of viral replication (IC50) by logistic regression analysis.
The capacity of MGBG to preclude infection of three HSV-1 acyclovir and/or foscarnet resistant strains was tested. The reference strains used in this study were the SC16 acyclovir-susceptible reference strain, the DM21 acyclovir-resistant reference strain derived from SC16 and the TP 2.5 foscarnet-resistant reference strain derived from SC16 (Efstathiou et al., 1989; Hill et al., 1975; Larder and Darby, 1985). In each experiment, dose response curves were constructed for […], for acyclovir, and for MGBG. The ED values were determined.

CC(C=NNC(=N)N)=NNC(=N)N [MGBG, methylglyoxal bis(guanylhydrazone)]
IC50: 75 µM

Source: patent publication US20070059299A1, “S-adenosyl methionine decarboxylase inhibition for the treatment of a herpes simplex virus infection” (Institut National de la Sante et de la Recherche Medicale …, priority 2002, published 2007)
